Format in all cases: cell-based, human
For experiment [1], the system named is HCT-116 cells. The experiment is described as follows: Proliferation inhibition assay of cancer cells (Test Example 1), HCT-116. Particulars: read-out: IC50 (μM) HCT, concentration for 50% inhibition of cell proliferation (Bulk IC50 value). As to the method:
(§1) HCT-116 cells (derived from human colon adenocarcinoma), HT-29 cells (derived from human colon cancer), and FaDu cells (derived from human hypopharynx cancer) were obtained from American Type Culture Collection (ATCC). […] After cells were seeded at 300-600 cells/well onto black μClear-plate 384 well (Greiner bio-one Cat. No. 781091), a test substance was added such that the final concentration of DMSO is 0.1%, and cultured for 4 days. […] A test shown in Test example 1 was carried out for compounds obtained in the Examples.

Experiment [2] relates to HT-29 cells. The experiment is described as follows: Inhibition assay of cancer cell sphere-forming ability (Test Example 2), HT-29. Conditions: read-out: IC50 (μM) HT, concentration for 50% inhibition of cell proliferation (Sphere IC50 value). As to the method:
(§2) HCT-116 cells (derived from human colon adenocarcinoma), HT-29 cells (derived from human colon cancer), FaDu cells (derived from human hypopharynx cancer) were obtained from American Type Culture Collection (ATCC). […] HCT-116 cells, HT-29 cells, and FaDu cells were seeded onto 384 Well Black Clear Bottom Ultra-Low Attachment Microplate (Corning Cat. […] A test substance was added so that the final concentration of DMSO is 0.1%, and then cultured for 4 days. […] A test shown in Test example 2 was carried out for compounds obtained in the Examples.

Experiment [3] concerns FaDu cells. The experiment is described as follows: Inhibition assay of cancer cell sphere-forming ability (Test Example 2), FaDu. Particulars: read-out: IC50 (μM) FaDu, concentration for 50% inhibition of cell proliferation (Sphere IC50 value). As for the experimental part:
as §2

The test system of experiment [4] is HCT-116 cells. Briefly: Inhibition assay of cancer cell sphere-forming ability (Test Example 2), HCT-116. Particulars: read-out: IC50 (μM) HCT, concentration for 50% inhibition of cell proliferation (Sphere IC50 value). As to the method:
as §2

Experiment [5] relates to FaDu cells. Briefly: Proliferation inhibition assay of cancer cells (Test Example 1), FaDu. Particulars: read-out: IC50 (μM) FaDu, concentration for 50% inhibition of cell proliferation (Bulk IC50 value). As to the method: as §1
Experiment [6] has as its system HT-29 cells. The experiment is described as follows: Proliferation inhibition assay of cancer cells (Test Example 1), HT-29. Particulars: read-out: IC50 (μM) HT, concentration for 50% inhibition of cell proliferation (Bulk IC50 value). As to the method:
as §1

Where [7] appears, read: Homo sapiens, HCT-116, 96 h, HCT-116 cells, cultured for 4 days, Cell Titer-Glo.
[8] abbreviates: Homo sapiens, HT-29, 96 h, HT-29 cells, Ultra-Low Attachment plate, serum-free DMEM/F12 with B27, EGF, bFGF, insulin, 4 days, Cell Titer-Glo.
Where [9] appears, read: Homo sapiens, FaDu, 96 h, FaDu cells, Ultra-Low Attachment plate, serum-free DMEM/F12 with B27, EGF, bFGF, insulin, 4 days, Cell Titer-Glo.
[10] abbreviates: Homo sapiens, HCT-116, 96 h, HCT-116 cells, Ultra-Low Attachment plate, serum-free DMEM/F12 with B27, EGF, bFGF, insulin, 4 days, Cell Titer-Glo.
Where [11] appears, read: Homo sapiens, FaDu, 96 h, FaDu cells, cultured for 4 days, Cell Titer-Glo.
The mark [12] stands for this setting: Homo sapiens, HT-29, 96 h, HT-29 cells, cultured for 4 days, Cell Titer-Glo.

Broadly, the IC50 is the concentration that gives 50% inhibition.

Turning to `CCOC(=O)N(CC)Cc1cc2c(o1)C(=O)c1cccnc1C2=O` [Example 11, ethyl [(4,9-dioxo-4,9-dihydrofuro[2,3-g]quinolin-2-yl)methyl]ethylcarbamate], the IC50 in experiment [1] (setting [7]) came out at 0.49 µM; in experiment [2] (setting [8]) it was 0.71 µM; in experiment [3] (setting [9]) it was 0.28 µM; in experiment [4] (setting [10]), 0.46 µM; in experiment [5] (setting [11]) it was 0.45 µM; in experiment [6] (setting [12]), 3.85 µM.
Consider `O=C1c2cnccc2C(=O)c2sc(CO)cc21` [Example 14, 2-(1-hydroxymethyl)thieno[2,3-g]isoquinoline-4,9-dione], for which the IC50 came out at 0.06 µM in experiment [1] (setting [7]); 0.09 µM in experiment [2] (setting [8]); 0.02 µM in experiment [3] (setting [9]); 0.09 µM in experiment [4] (setting [10]); 0.03 µM in experiment [5] (setting [11]); 0.48 µM in experiment [6] (setting [12]).
Regarding `CCOC(c1cc2c(s1)C(=O)c1ccncc1C2=O)C1CC1` (stereo not drawn) [Example 17, 2-[cyclopropyl(ethoxy)methyl]thieno[2,3-g]isoquinoline-4,9-dione], the 50% inhibitory concentration (IC50) in experiment [1] (setting [7]) is 0.41 µM; in experiment [2] (setting [8]) it was 0.54 µM; in experiment [3] (setting [9]), 0.05 µM; in experiment [4] (setting [10]) it was 0.55 µM; in experiment [5] (setting [11]), 0.84 µM; in experiment [6] (setting [12]) it was 0.87 µM.
For the molecule `O=C1c2cnccc2C(=O)c2sc(COCc3ccccc3)cc21` [Example 18, 2-[(benzyloxy)methyl]thieno[2,3-g]isoquinoline-4,9-dione], the concentration for half-maximal inhibition (IC50) is 1 µM in experiment [1] (setting [7]); greater than 10 µM in experiment [2] (setting [8]); 0.63 µM in experiment [3] (setting [9]); 5.71 µM in experiment [4] (setting [10]); 0.57 µM in experiment [5] (setting [11]); greater than 10 µM in experiment [6] (setting [12]).
For `O=C1c2ccncc2C(=O)c2c(C(=O)N3CCOCC3)csc21` [Example 22, 3-(morpholin-4-ylcarbonyl)thieno[2,3-g]isoquinoline-4,9-dione], the IC50 in experiment [1] (setting [7]) worked out at 0.48 µM; in experiment [2] (setting [8]), 0.16 µM; in experiment [3] (setting [9]), 0.31 µM; in experiment [4] (setting [10]), 0.5 µM; in experiment [5] (setting [11]), 0.44 µM; in experiment [6] (setting [12]), 0.81 µM.
In the case of `CC(c1cc2c(s1)C(=O)c1ccncc1C2=O)N1CCOCC1` (stereo not drawn) [Example 23, 2-[1-(morpholin-4-yl)ethyl]thieno[2,3-g]isoquinoline-4,9-dione], the IC50 in experiment [1] (setting [7]) was 0.1 µM; in experiment [2] (setting [8]) it was 0.48 µM; in experiment [3] (setting [9]), 0.04 µM; in experiment [4] (setting [10]), 0.31 µM; in experiment [5] (setting [11]), 0.03 µM; in experiment [6] (setting [12]), 0.58 µM.
For the molecule `CCN(Cc1cc2c(s1)C(=O)c1ccncc1C2=O)C1CCCCC1` [Example 25, 2-{[Cyclohexyl(ethyl)amino]methyl}thieno[2,3-g]isoquinoline-4,9-dione], the IC50 in experiment [1] (setting [7]) is 0.69 µM; in experiment [2] (setting [8]), less than 0.01 µM; in experiment [3] (setting [9]) it was 0.06 µM; in experiment [4] (setting [10]), 0.8 µM; in experiment [5] (setting [11]) it was 0.46 µM; in experiment [6] (setting [12]) it was 0.96 µM.
`O=C1c2cnccc2C(=O)c2sc(CN(CC(F)F)C(=O)C3CCCCC3)cc21` [Example 28, N-(2,2-difluoroethyl)-N-((4,9-dioxo-4,9-dihydrothieno[2,3-g]isoquinolin-2-yl)methyl)cyclohexanecarboxamide]: the IC50 was found to be 0.47 µM in experiment [1] (setting [7]); 0.59 µM in experiment [2] (setting [8]); 0.09 µM in experiment [3] (setting [9]); 0.57 µM in experiment [4] (setting [10]); 0.08 µM in experiment [5] (setting [11]); 0.63 µM in experiment [6] (setting [12]).
With `O=C1c2cnccc2C(=O)c2sc(N3CCOCC3)cc21` [Example 32, 2-(morpholin-4-yl)thieno[2,3-g]isoquinoline-4,9-dione], the IC50 in experiment [1] (setting [7]) was 6.56 µM; in experiment [2] (setting [8]) it was greater than 10 µM; in experiment [3] (setting [9]), 1.25 µM; in experiment [4] (setting [10]), 7.7 µM; in experiment [5] (setting [11]) it was 2.15 µM; in experiment [6] (setting [12]), greater than 10 µM.
With `COc1c2ccncc2c(OC)c2sc(C(C)O)cc12` (stereo not drawn) [Example 34, 1-(4,9-dimethoxythieno[3,2-g]isoquinolin-2-yl)ethanol], the IC50 in experiment [1] (setting [7]) came out at 0.07 µM; in experiment [2] (setting [8]), 0.5 µM; in experiment [3] (setting [9]), 0.04 µM; in experiment [4] (setting [10]), 0.24 µM; in experiment [5] (setting [11]), 0.04 µM; in experiment [6] (setting [12]), 0.64 µM.
With `O=C1c2ccncc2C(=O)c2sc(CNCC(F)F)cc21` [Example 35, 2-{[(2,2-Difluoroethyl)amino]methyl}thieno[3,2-g]isoquinoline-4,9-dione], the IC50 turned out to be 0.08 µM in experiment [1] (Homo sapiens, HCT-116, 96 h); 0.39 µM in experiment [2] (Homo sapiens, HT-29, 96 h); 0.04 µM in experiment [3] (Homo sapiens, FaDu, 96 h); 0.27 µM in experiment [4] (Homo sapiens, HCT-116, 96 h); 0.05 µM in experiment [5] (Homo sapiens, FaDu, 96 h); 0.6 µM in experiment [6] (Homo sapiens, HT-29, 96 h).
In the case of `CC(=O)c1cc2c(s1)C(=O)c1ncccc1C2=O` [Example 36, 2-acetylthieno[3,2-g]quinoline-4,9-dione], the IC50 in experiment [1] (setting [7]) was 0.1 µM; in experiment [2] (setting [8]), 0.25 µM; in experiment [3] (setting [9]) it was 0.05 µM; in experiment [4] (setting [10]) it was 0.07 µM; in experiment [5] (setting [11]) it was 0.09 µM; in experiment [6] (setting [12]), 0.73 µM.
On to `CC(O)c1cc2c(s1)C(=O)c1ncccc1C2=O` (stereo not drawn) [Example 37, 2-(1-hydroxyethyl)thieno[3,2-g]quinoline-4,9-dione], for which the IC50 was determined as 0.06 µM in experiment [1] (setting [7]); 0.49 µM in experiment [2] (setting [8]); 0.06 µM in experiment [3] (setting [9]); 0.06 µM in experiment [4] (setting [10]); 0.08 µM in experiment [5] (setting [11]); 0.62 µM in experiment [6] (setting [12]).
With `COC(C)c1cc2c(s1)C(=O)c1ncccc1C2=O` (stereo not drawn) [Example 38, 2-(1-methoxyethyl)thieno[3,2-g]quinoline-4,9-dione], the IC50 came out at 0.55 µM in experiment [1] (setting [7]); 0.59 µM in experiment [2] (setting [8]); 0.28 µM in experiment [3] (setting [9]); 0.55 µM in experiment [4] (setting [10]); 0.44 µM in experiment [5] (setting [11]); 0.66 µM in experiment [6] (setting [12]).
In the case of `CC1CNCC(C)(C(=O)c2cc3c(s2)C(=O)c2ncccc2C3=O)C1` (stereo not drawn) [Example 39, 2-[(3,5-dimethylpiperidin-5-yl)carbonyl]thieno[3,2-g]quinoline-4,9-dione], the IC50 in experiment [1] (setting [7]) was 0.38 µM; in experiment [2] (setting [8]) it was 0.55 µM; in experiment [3] (setting [9]), 0.45 µM; in experiment [4] (setting [10]), 0.35 µM; in experiment [5] (setting [11]), 0.09 µM; in experiment [6] (setting [12]) it was 3.71 µM.
For the molecule `O=C(NCC(F)F)c1cc2c(s1)C(=O)c1ncccc1C2=O` [Example 40, N-(2,2-difluoroethyl)-4,9-dioxo-4,9-dihydroxythieno[3,2-g]quinoline-2-carboxyamide], the IC50 in experiment [1] (HCT-116 cells, cultured for 4 days, Cell Titer-Glo) was found to be 0.07 µM; in experiment [2] (HT-29 cells, Ultra-Low Attachment plate, serum-free DMEM/F12 with B27, EGF, bFGF, insulin, 4 days, Cell Titer-Glo) it was 0.51 µM; in experiment [3] (FaDu cells, Ultra-Low Attachment plate, serum-free DMEM/F12 with B27, EGF, bFGF, insulin, 4 days, Cell Titer-Glo), 0.05 µM; in experiment [4] (HCT-116 cells, Ultra-Low Attachment plate, serum-free DMEM/F12 with B27, EGF, bFGF, insulin, 4 days, Cell Titer-Glo) it was 0.08 µM; in experiment [5] (FaDu cells, cultured for 4 days, Cell Titer-Glo), 0.05 µM; in experiment [6] (HT-29 cells, cultured for 4 days, Cell Titer-Glo), 0.55 µM.
